Biological target: T1, LjG10H (geraniol 10-hydroxylase) (Lonicera japonica, UniProt U5NH25)
T1 construct: pET32a, N-terminal TRX/His tag kept (band about 72 kDa), E. coli BL21, Ni column
Test: HPLC detection of 10-hydroxygeraniol formed by purified recombinant protein
Assay type: biochemical
Conditions: 2.5 mmol/L geraniol, 1 mmol/L NADPH with glucose-6-phosphate / G6PDH, FAD, FMN, EDTA, DTT, potassium phosphate pH 7.6, 30 °C, 3 h; no P450 reductase mentioned

T1 sequence (U5NH25 entry or part of it): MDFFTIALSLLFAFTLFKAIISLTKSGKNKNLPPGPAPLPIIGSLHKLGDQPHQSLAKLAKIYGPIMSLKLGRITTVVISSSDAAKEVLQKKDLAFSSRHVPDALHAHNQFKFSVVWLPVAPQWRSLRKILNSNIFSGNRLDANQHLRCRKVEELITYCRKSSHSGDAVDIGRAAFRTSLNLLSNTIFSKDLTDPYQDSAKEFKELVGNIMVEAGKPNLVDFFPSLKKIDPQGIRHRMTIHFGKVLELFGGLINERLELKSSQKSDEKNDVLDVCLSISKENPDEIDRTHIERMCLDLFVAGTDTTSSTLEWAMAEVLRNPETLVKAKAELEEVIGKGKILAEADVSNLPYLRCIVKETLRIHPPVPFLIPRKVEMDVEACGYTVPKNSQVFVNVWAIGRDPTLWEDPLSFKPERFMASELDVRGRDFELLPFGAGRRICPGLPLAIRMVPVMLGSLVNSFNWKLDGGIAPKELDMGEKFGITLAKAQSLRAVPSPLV

`CC(C)=CCC/C(C)=C/CO` [geraniol] was tested, and the “HPLC detection of 10-hydroxygeraniol formed by purified recombinant protein” value was “LjG10H exhibits catalytic activity in the conversion of geraniol to 10-hydroxygeraniol in vitro”.

Source: paper PMC11737341, “Cloning and functional verification of Geraniol-10-Hydroxylase gene in Lonicera japonica” (PeerJ, 2025)
